Structures can show the parent of a compound that is named as a salt.
Legend:
[1] = target: T1, human recombinant ENPP1 enzymes (Homo sapiens, UniProt P22413); experiment: ENPP1 Enzyme Assay with cGAMP Substrate (AMP-Glo); format: biochemical; details: human recombinant ENPP1 3 ng/reaction, cGAMP 5 μM, 37° C. 90 minutes, average of two or more tests; read-out: Enzymatic activity IC50
T1 construct: purchased R & D systems
T1 sequence (P22413 1-925): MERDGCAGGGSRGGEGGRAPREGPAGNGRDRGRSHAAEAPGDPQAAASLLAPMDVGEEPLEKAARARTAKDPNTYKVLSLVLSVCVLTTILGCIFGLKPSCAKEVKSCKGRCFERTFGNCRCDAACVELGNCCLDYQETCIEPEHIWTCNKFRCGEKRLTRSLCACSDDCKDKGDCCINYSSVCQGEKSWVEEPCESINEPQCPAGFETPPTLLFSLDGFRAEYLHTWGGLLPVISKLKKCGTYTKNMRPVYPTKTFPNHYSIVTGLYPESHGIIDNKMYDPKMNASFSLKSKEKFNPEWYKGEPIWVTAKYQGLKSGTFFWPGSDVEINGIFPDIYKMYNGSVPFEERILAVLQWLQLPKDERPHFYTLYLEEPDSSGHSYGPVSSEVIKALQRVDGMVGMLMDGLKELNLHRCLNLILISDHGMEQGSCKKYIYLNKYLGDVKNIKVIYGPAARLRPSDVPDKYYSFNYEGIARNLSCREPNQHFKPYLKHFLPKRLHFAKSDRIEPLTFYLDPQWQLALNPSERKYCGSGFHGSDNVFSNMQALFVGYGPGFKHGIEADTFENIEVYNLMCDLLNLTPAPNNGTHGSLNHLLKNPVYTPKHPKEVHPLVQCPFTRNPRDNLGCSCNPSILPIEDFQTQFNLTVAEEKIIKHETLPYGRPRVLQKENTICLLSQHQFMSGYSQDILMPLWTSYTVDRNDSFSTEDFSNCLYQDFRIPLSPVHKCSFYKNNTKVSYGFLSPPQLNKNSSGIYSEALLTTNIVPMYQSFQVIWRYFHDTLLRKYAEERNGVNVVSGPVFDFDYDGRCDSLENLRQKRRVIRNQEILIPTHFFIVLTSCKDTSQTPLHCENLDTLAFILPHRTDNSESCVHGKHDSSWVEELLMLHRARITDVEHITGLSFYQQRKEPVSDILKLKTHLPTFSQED
Method in brief: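 Human recombinant ENPP1 (3 ng/reaction) preincubated 5–10 min at RT with inhibitor, then reacted with 5 µM cGAMP for 90 min at 37 °C in 50 mM Tris pH 8.5, 250 mM NaCl, 0.5 mM CaCl2, 1 µM ZnCl2, 1% DMSO. AMP produced read by AMP-Glo luminescence; IC50 from 3-parameter fit, averaged over ≥2 runs.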

[2] = system: interferon regulatory factor 3 (IRF3) in HCT116-Dual cells; experiment: HCT116-Dual Cell Luciferase Assay (ISG54 promoter, IRF3 activity); format: cell-based; details: ENPP1 inhibitor usually 10 μM plus cGAMP 10 μM, 48 hours, Lucia luciferase
Description: HCT116-Dual™ cells express genes encoding luciferase secreted under the control of the interferon-stimulated gene 54 (ISG54) promoter along with five interferon-stimulated response elements. The HCT116-Dual™ cell line was used to measure and monitor the activity of interferon regulatory factor 3 (IRF3), which induces production of type I interferon and relates to downstream signaling, and Lucia secreted in the culture medium was used to generate luminescence in a luciferase reaction.
HCT116-Dual™ cells were cultured at 2×10^4 cells/well (93.4 μL) in a 96-well plate for one day in a DMEM medium containing 10% FBS and 25 mM HEPES (pH 7.2-7.5). The cells were treated with 3.3 μL of ENPP1 inhibitor (usually 10 μM) and then 3.3 μL of cGAMP (10 μM) to set the final volume to 100 μL (The final fraction of DMSO was 0.1%). The cells treated with ENPP1 inhibitor and cGAMP were cultured at 37° C. for 48 hours and 50 μL of Quanti-Luc reaction solution was added to 20 μL of cell culture medium to measure luciferase activity. The increase in interferon regulatory factor 3 (IRF3) by the compound compared to cGAMP was determined as fold.

SMILES	IC50 [1]	Cellular activity: increase in IRF3 by the compound compared to cGAMP, as fold [2]
NS(=O)(=O)NCc1cc(-c2ccnc3[nH]c(=O)ccc23)ccc1F [Example 38, N-(2-fluoro-5-(7-oxo-7,8-dihydro-1,8-naphthyridin-4-yl)benzyl)sulfamide hydrochloride]	< 1000 nM	B (1< Fold <2)
CNCc1ccc(-c2ccnc3[nH]c(=O)ccc23)cc1F.Cl [Example 23, 5-(3-fluoro-4-((methylamino)methyl)phenyl)-1,8-naphthyridin-2(1H)-one hydrochloride]	1000 to 10000 nM	B (1< Fold <2)
NS(=O)(=O)Nc1cc(-c2ccnc3[nH]c(=O)ccc23)ccc1F [Example 36, N-(2-fluoro-5-(7-oxo-7,8-dihydro-1,8-naphthyridin-4-yl)phenyl)sulfamide hydrochloride]	< 1000 nM	B (1< Fold <2)
